Source: patent US20220125093A1, “NUTRITIONAL SUPPLEMENTS INCLUDING MEAL REPLACEMENTS AND RELATED METHODS” (Ohio State Innovation Foundation, priority 2012, published 2022)

Columns and labels:
[1] = single dose of zinc, healthy young adult women, blood at 0, 1, 2, 3 and 4 hours
Excerpt: Zinc glycinate has not been studied at all in people who have had bariatric surgery. Furthermore, in published studies on any types of people, zinc glycinate has not been compared much to other forms of zinc. Thus, an unpublished comparative study was done in healthy young adult women that compared zinc glycinate to two other forms of zinc. The study utilized an indirect approach of absorption. In this approach, a single dose of zinc was given to young adult women; blood was taken at 0, 1, 2, 3, and 4 hours. Both plasma and red blood cells (erythrocytes) were analyzed for zinc and for each, an area under the curve graph was calculated for zinc content versus time.

[2] = Iron status as ferritin/CRP ratio after bariatric surgery; assay type: in vivo, human; settings: added to meal replacement product, same amount of iron for each group
Excerpt: Design. Young adult females who were about to have bariatric surgery were recruited. Blood and urine samples were taken before surgery and 6 weeks later. People were divided into two groups. One group drank 2 servings per day of the new product related to this patent (N=12) for 6 weeks. The other group drank 2 servings of a current meal replacement product and also took other supplements including sublingual vitamin B12. The new product had the B12 put right in the meal replacement product. The vitamin is put in the product at a daily dose that is very high relative to normal recommendations, and high relative to what was used for injections or sublingual administration. Also, a coenzyme form of the vitamin was used in the meal replacement product.
Iron status was measured as ferritin/CRP ratios (ferritin reflects iron status but can also be influenced by inflammation; CRP only reflects inflammation).

Row | Compound | erythrocyte (red blood cell) zinc area under the curve [1] | plasma zinc area under the curve [1] | iron status (ferritin/CRP ratios) [2]
1 | NCC(=O)[O-].NCC(=O)[O-].[Zn+2] [Zinc glycinate, zinc glycinate] | outperformed zinc oxide and gluconate | outperformed zinc oxide and gluconate | 
2 | Iron Glycinate Chelate |  |  | improved iron status to about the same degree as a conventional bariatric meal replacement product+iron lozenges
